Experimental data from paper PMC6114082, “Synthesis of aminophenylhydroxamate and aminobenzylhydroxamate derivatives and in vitro screening for antiparasitic and histone deacetylase inhibitory activity” (International Journal for Parasitology: Drugs and Drug …, 2018).

Tests used:
[1] = test system: HeLa nuclear extract (HDAC 1, 2, 6, and 8 predominant); experiment: Fluorometric HDAC assay, HeLa nuclear extract; type: biochemical
Protocol: (§1) The HDACi effect against HeLa nuclear extracts and recombinant proteins were measured using a fluorometric HDAC assay kit (Active Motif, Belgium) according to the manufacturer's instructions. […] A negative control containing trichostatin A at a final concentration of 2 μM was analyzed for each independent experiment.

HDAC 1 = biological target: T1, HDAC 1 (Homo sapiens, UniProt Q13547); experiment: Fluorometric HDAC assay, recombinant HDAC1; type: biochemical
T1 construct: purchased Active Motif, Belgium
T1 sequence (Q13547 whole entry): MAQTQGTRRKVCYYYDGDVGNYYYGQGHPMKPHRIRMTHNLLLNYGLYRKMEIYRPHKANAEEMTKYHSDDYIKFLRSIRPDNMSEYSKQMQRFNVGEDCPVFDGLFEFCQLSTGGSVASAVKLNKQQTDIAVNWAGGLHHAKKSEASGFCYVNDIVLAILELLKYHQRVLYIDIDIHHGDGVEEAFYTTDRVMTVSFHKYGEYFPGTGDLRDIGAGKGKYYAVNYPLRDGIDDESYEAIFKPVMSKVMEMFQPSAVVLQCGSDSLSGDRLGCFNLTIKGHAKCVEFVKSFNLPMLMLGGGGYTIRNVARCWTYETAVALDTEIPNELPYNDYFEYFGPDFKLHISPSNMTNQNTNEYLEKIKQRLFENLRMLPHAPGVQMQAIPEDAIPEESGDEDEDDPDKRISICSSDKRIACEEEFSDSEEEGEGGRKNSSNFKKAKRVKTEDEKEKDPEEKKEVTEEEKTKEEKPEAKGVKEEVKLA
Protocol: The HDACi effect against HeLa nuclear extracts and recombinant proteins were measured using a fluorometric HDAC assay kit (Active Motif, Belgium) according to the manufacturer's instructions. Briefly, 30 μL of HeLa nuclear extract (Active Motif, Belgium) or various HDAC recombinant proteins (Active Motif, Belgium) was mixed with 5 μL of a 10 × compound and 10 μL of assay buffer. A negative control containing trichostatin A at a final concentration of 2 μM was analyzed for each independent experiment. A fluorogenic substrate (10 μL) was added, and the reaction was allowed to proceed for 30 min at room temperature and then stopped by the addition of a developer containing trichostatin A. The fluorescence was monitored after 30 min at excitation and emission wavelengths of 360 and 460 nm, respectively.

T. gondi RH-YFP = experiment: Anti-Toxoplasma activity in infected HFF monolayers, type I RH-YFP (parasitic index); type: cell-based, Toxoplasma gondii
[2] = test system: T. brucei MHOM/CI/81/DAL967; experiment: Antitrypanosomal activity, T. brucei; type: cell-based, Trypanosoma brucei gambiense; conditions: Trypanosoma brucei
Protocol: The antitrypanosomatid activity of the compounds was ascertained as follows. Leishmania parasites were cultured at 26 °C in SDM-79 medium supplemented with 10% fetal calf serum (FCS), and the antileishmanial activity was determined according to a previously published protocol for LUC-expressing and wild-type Leishmania ([Sereno et al., 2001], [Abbassi et al., 2008]). Trypanosoma brucei gambiense were grown at 26 °C in Cunningham's medium supplemented with 10% FCS, 2 mM GlutaMAX-1 (Gibco, USA), 100 U/ml penicillin, 100 μg/ml streptomycin and […] bovine hemin. The epimastigote form of Trypanosoma cruzi (strain Y cl7 scl2, lineage Tc2) (kindly provided by Philippe Truc and Christian Barnabé, UMR 177 IRD-CIRAD InterTryp, Montpellier, France) were grown at 26 °C in liver infusion tryptose (LIT) medium, supplemented with 10% FCS, 2 mM GlutaMAX™-I, 100 U/ml penicillin, 100 μg/ml streptomycin and bovine hemin (20 mg/l) (Gibco). The antitrypanosomatids activity was determined using a protocol that was initialy set up for wild-type Leishmania ([Abbassi et al., 2008]). To assess the drug activity on Toxoplasma gondii, confluent human foreskin fibroblast (HFF) monolayers were infected with YFP-type I Rh kindly provided by B. Striepen, see ([Striepen et al., 1998]) or Tomato-type II Pru kindly provided by N. Blanchard (Toulouse), expressing parasites at 5 × 10^4 per well, which were then centrifuged for 30 s at 1300 rpm and incubated for 30 min in a water bath at 37 °C to allow invasion. The wells were then washed three times with PBS to eliminate extracellular parasites, and the drugs were added at various concentrations ranging from 1 to 50 μM. After incubation for 24 h at 37 °C in a humidified atmosphere containing 5% CO2, the cells were fixed in 2.5% methanol-free formaldehyde (Tebu-bio)/PBS for 30 min at room temperature. Nuclei were stained with Hoechst 33258 (2 μg/ml, Molecular Probes) for 20 min and then washed three times with water for 10 min each time. The number of infected cells, i.e., cells harboring a parasitophorous vacuole, and the number of parasites per vacuole were determined using an Olympus ScanR microscope ( × 20 objective) and ScanR software. The parasitic index in % compared to the control was calculated as follows: (PI=((number of parasite/100 cells in treated wells) x (% of infected macrophage in treated well)/(number of parasite/100 cells in untreated wells) x (% of infected macrophage in untreated wells))*100).

HDAC 6 = biological target: T2, HDAC 6 (Homo sapiens, UniProt Q9UBN7); experiment: Fluorometric HDAC assay, recombinant HDAC6; type: biochemical
T2 construct: purchased Active Motif, Belgium
T2 sequence (Q9UBN7 1-1215): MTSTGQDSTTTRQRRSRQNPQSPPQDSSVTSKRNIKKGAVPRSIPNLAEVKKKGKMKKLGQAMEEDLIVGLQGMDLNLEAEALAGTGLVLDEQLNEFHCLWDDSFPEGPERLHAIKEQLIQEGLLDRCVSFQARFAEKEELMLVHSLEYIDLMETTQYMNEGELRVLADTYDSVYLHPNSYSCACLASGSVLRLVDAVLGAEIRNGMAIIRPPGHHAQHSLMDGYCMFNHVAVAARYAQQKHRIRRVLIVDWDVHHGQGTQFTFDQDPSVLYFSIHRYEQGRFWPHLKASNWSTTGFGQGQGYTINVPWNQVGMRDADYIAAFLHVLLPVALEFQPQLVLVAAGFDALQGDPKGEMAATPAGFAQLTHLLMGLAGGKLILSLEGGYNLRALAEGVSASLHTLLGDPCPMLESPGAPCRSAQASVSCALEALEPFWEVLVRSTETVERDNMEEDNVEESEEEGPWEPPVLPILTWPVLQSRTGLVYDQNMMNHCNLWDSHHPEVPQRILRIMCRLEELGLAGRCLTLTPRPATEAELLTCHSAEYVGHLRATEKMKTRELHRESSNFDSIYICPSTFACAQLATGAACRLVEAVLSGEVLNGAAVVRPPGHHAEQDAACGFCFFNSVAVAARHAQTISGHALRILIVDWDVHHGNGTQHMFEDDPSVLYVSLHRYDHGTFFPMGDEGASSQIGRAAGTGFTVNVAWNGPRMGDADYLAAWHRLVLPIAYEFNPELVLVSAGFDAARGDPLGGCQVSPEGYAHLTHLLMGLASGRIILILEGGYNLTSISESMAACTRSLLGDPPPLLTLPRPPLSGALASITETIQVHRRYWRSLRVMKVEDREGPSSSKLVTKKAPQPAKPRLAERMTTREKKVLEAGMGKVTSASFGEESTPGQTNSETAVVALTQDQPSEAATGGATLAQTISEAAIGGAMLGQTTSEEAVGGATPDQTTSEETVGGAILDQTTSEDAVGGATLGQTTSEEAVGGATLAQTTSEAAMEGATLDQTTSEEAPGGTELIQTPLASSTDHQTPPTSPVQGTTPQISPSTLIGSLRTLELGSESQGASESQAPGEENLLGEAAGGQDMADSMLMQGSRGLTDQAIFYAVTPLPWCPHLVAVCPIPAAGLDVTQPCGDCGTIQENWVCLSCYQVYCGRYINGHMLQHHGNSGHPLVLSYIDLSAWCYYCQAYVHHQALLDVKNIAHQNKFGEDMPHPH
Protocol: as §1

With `COc1cccc(CC(=O)Nc2ccc(C(=O)NO)cc2)c1` [Compound 363, N-hydroxy-4-[2-(3-methoxyphenyl)acetamido]benzamide] the “HDACi effect, inhibition at single concentration” value ([1]; 1.0 μM, screen on HeLa nuclear extract and recombinant HDAC1, 3, 6, 8 (Fig. 2A)) was 90%, the IC50 ([1]; HeLa nuclear extract, read-out: HDACi HeLa IC50) was 85 ± 35 nM and the “Fold, HDAC 1” value (HDAC 1; 363 as compared to SAHA) was 2.43. For the same compound, the IC50 (HDAC 1; recombinant protein, read-out: rHDAC 1 IC50) was 257 ± 50 nM, the “IS^a selectivity index for T. gondi” value (T. gondi RH-YFP; IC50 HFF / IC50 T. gondi RH-YFP) was 300 and the IC50 (T. gondi RH-YFP; Toxoplasma gondii, read-out: anti-Toxoplasma activity IC50, range over strains, type I and type II strains together (abstract)) was 350 to 2250 nM. For the same compound, the “selectivity index, range over human cell lines” value (T. gondi RH-YFP; using different human cell lines) was 10–300, the IC50 [2] was > 60000 nM and the “Fold, HDAC 6” value (HDAC 6; 363 as compared to SAHA) was 34.9. For the same compound, the IC50 (HDAC 6; recombinant protein, read-out: rHDAC 6 IC50) was 45 ± 15 nM.
